We go through eight molecules from ChEMBL document CHEMBL1201862, “PubChem BioAssay data set” (2004).

SMILES strings stand for the structures.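 Each compound was tested at five concentrations against cells in 96-well plates for 48 hours. GI50 = concentration required for 50% inhibition of growth.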 Calls of active or inactive are those of the source. No stated cut-off is given here; in the data, active = GI50 up to about 1.1 µM and inactive = higher.

Among the test systems are 786-0; A498; CCRF-CEM; DU-145; EKVX; HCT-116; HCT-15; HOP-92; HT-29; MDA-MB-231; MDA-MB-435; NCI-H522; NCI/ADR-RES; OVCAR-3; RPMI-8226; SK-MEL-28; SNB-19; SNB-75; SR; SW-620.
Experiment in all cases: NCI tumour cell line growth inhibition, 48 h

Take `CCOC(=O)c1cn2c(n1)sc1cc(Cl)cc(Cl)c12`: the GI50 with 786-0, in the experiment on A498, with CCRF-CEM, with DU-145, in the experiment on EKVX and in the experiment on HCT-116 was > 100 µM (inactive) in each case. For the same molecule, the GI50 was greater than 100 µM in the experiment with HCT-15; > 100 µM (inactive) in the experiment on HOP-92; > 100 µM (inactive) in the experiment on HT-29; > 100 µM (inactive) in the experiment on MDA-MB-231; > 100 µM (inactive) in the experiment with MDA-MB-435; > 100 µM (inactive) with NCI-H522. In addition, the GI50 in the experiment with NCI/ADR-RES, with OVCAR-3, in the experiment with RPMI-8226, in the experiment on SK-MEL-28, in the experiment with SNB-19 and in the experiment with SNB-75 was > 100 µM (inactive) throughout. Moreover, the GI50 in the experiment with SR and in the experiment on SW-620 was > 100 µM (inactive) each time.

For the molecule `COC(=O)CCC(C)[C@H]1CCC2C3C(C[C@H](OC(C)=O)[C@@]21C)[C@@]1(C)CCC2(C[C@H]1C[C@H]3OC(C)=O)OOC1(CCCC1)OO2` (stereo not given in full), the GI50 in the experiment with 786-0 is 29.6 µM (inactive); with A498, > 100 µM (inactive); in the experiment on CCRF-CEM, 7.89 µM (inactive); in the experiment on DU-145 it was 27 µM (inactive); in the experiment on EKVX it was 11.1 µM (inactive); with HCT-116, 6.43 µM (inactive). Further, the GI50 was 27.5 µM with HCT-15; 9.62 µM (inactive) in the experiment on HOP-92; 34.4 µM (inactive) with HT-29; 43.3 µM (inactive) in the experiment on MDA-MB-231; 29.9 µM (inactive) in the experiment with MDA-MB-435; 23.4 µM (inactive) in the experiment with NCI-H522. Moreover, the GI50 was 84.5 µM (inactive) with NCI/ADR-RES; 5.56 µM (inactive) in the experiment on OVCAR-3; 2.47 µM (inactive) with RPMI-8226; > 100 µM (inactive) with SK-MEL-28; > 100 µM (inactive) in the experiment with SNB-19; 96.4 µM (inactive) with SNB-75. The GI50 with SR was 3.02 µM (inactive); in the experiment on SW-620 it was 51.9 µM (inactive).

For the molecule `O=C1C=CC(=O)c2c1cc1ccccc1c2O`, the GI50 in the experiment on 786-0 was 7.67 µM (inactive); with A498 it was 13.5 µM (inactive); in the experiment on CCRF-CEM it was 0.391 µM (active); with DU-145, 14.6 µM (inactive); in the experiment with EKVX it was 11.5 µM (inactive); with HCT-116, 1.85 µM (inactive). Further, the GI50 in the experiment on HCT-15 is 4.8 µM; with HOP-92 it was 1.8 µM (inactive); in the experiment on HT-29, 7.53 µM (inactive); with MDA-MB-231 it was 2.04 µM (inactive); with MDA-MB-435, 6.37 µM (inactive); with NCI-H522 it was 1.9 µM (inactive). The GI50 was 6.18 µM (inactive) in the experiment on NCI/ADR-RES; 2.12 µM (inactive) in the experiment with OVCAR-3; 2.43 µM (inactive) in the experiment with RPMI-8226; 9.25 µM (inactive) with SK-MEL-28; 19.3 µM (inactive) with SNB-19; 18.1 µM (inactive) with SNB-75. The GI50 in the experiment on SR is 0.428 µM (active); in the experiment with SW-620, 1.86 µM (inactive).

On to `Cc1c(Cl)cc(C(C)(C)C)c(O)c1Cc1c(C)c(Cl)cc(C(C)(C)C)c1O`, for which the GI50 is 1.73 µM (inactive) with 786-0; 1.26 µM (inactive) with A498; 0.303 µM (active) in the experiment on CCRF-CEM; 1.96 µM (inactive) with DU-145; 1.4 µM (inactive) in the experiment with EKVX; 0.536 µM (active) in the experiment with HCT-116. Moreover, the GI50 in the experiment with HCT-15 was 2.21 µM; in the experiment with HOP-92, 0.304 µM (active); in the experiment on HT-29, 1.54 µM (inactive); in the experiment with MDA-MB-231, 1.65 µM (inactive); in the experiment with MDA-MB-435 it was 2.06 µM (inactive); with NCI-H522, 0.299 µM (active). For the same molecule, the GI50 was 2.14 µM (inactive) with NCI/ADR-RES; 0.436 µM (active) in the experiment with OVCAR-3; 0.273 µM (active) with RPMI-8226; 2.33 µM (inactive) with SK-MEL-28; 1.8 µM (inactive) in the experiment with SNB-19; 1.5 µM (inactive) in the experiment with SNB-75. The GI50 in the experiment on SR was 2.18 µM (inactive); with SW-620, 1.81 µM (inactive).

`COc1cc(OC)c(OC)cc1/C=N/N=C(\N)NO`: the GI50 in the experiment on 786-0, in the experiment with A498, in the experiment on CCRF-CEM, with DU-145, in the experiment on EKVX and in the experiment with HCT-116 was > 100 µM (inactive) throughout. The GI50 in the experiment on HCT-15 is greater than 100 µM; in the experiment on HOP-92, 77.6 µM (inactive); in the experiment on HT-29, > 100 µM (inactive); in the experiment with MDA-MB-231, > 100 µM (inactive); in the experiment on MDA-MB-435, 68.2 µM (inactive); in the experiment on NCI-H522, > 100 µM (inactive). The GI50 in the experiment on NCI/ADR-RES was > 100 µM (inactive); in the experiment on OVCAR-3, > 100 µM (inactive); in the experiment with RPMI-8226 it was 68.9 µM (inactive); in the experiment with SK-MEL-28, > 100 µM (inactive); in the experiment on SNB-19, > 100 µM (inactive); in the experiment with SNB-75, 21.9 µM (inactive). For the same molecule, the GI50 in the experiment with SR and with SW-620 was > 100 µM (inactive) in each case.

As to `COC(=O)c1ccccc1C1CN=NC12Cc1c(C)cccc1C2=O` (stereo not given), the GI50 in the experiment on 786-0 is > 100 µM (inactive); in the experiment with A498, > 100 µM (inactive); in the experiment with CCRF-CEM, > 100 µM (inactive); with DU-145, > 100 µM (inactive); with EKVX it was > 100 µM (inactive); in the experiment on HCT-116 it was 69.2 µM (inactive). The GI50 in the experiment with HCT-15 was greater than 100 µM; with HOP-92, 29.1 µM (inactive); with HT-29 it was > 100 µM (inactive); in the experiment on MDA-MB-231, > 100 µM (inactive); in the experiment on MDA-MB-435, > 100 µM (inactive); in the experiment with NCI-H522 it was > 100 µM (inactive). Also, the GI50 is 60.8 µM (inactive) in the experiment on NCI/ADR-RES; > 100 µM (inactive) in the experiment on OVCAR-3; > 100 µM (inactive) in the experiment with RPMI-8226; > 100 µM (inactive) with SK-MEL-28; > 100 µM (inactive) with SNB-19; 94.4 µM (inactive) in the experiment on SNB-75. Further, the GI50 with SR and in the experiment with SW-620 was > 100 µM (inactive) throughout.

Regarding `O=C(c1nc2ccc([N+](=O)[O-])cc2nc1O)C(O)c1ccc2c(c1)OCO2` (stereo not given), the GI50 with 786-0 is > 100 µM (inactive); in the experiment with A498 it was > 100 µM (inactive); with CCRF-CEM it was 83.9 µM (inactive); with DU-145, > 100 µM (inactive); in the experiment on EKVX, > 100 µM (inactive); with HCT-116 it was 52.7 µM (inactive). The GI50 in the experiment on HCT-15 was greater than 62.2 µM; in the experiment with HOP-92, > 100 µM (inactive); in the experiment on HT-29, > 100 µM (inactive); in the experiment on MDA-MB-231, > 100 µM (inactive); with MDA-MB-435, 93.1 µM (inactive); in the experiment with NCI-H522 it was 14.8 µM (inactive). Moreover, the GI50 in the experiment on NCI/ADR-RES is > 100 µM (inactive); with OVCAR-3, > 50.7 µM (inactive); in the experiment on RPMI-8226 it was 55.5 µM (inactive); with SK-MEL-28, > 100 µM (inactive); in the experiment on SNB-19 it was > 100 µM (inactive); with SNB-75, > 100 µM (inactive). In addition, the GI50 in the experiment with SR and with SW-620 was > 100 µM (inactive) in each case.

Consider `CC1=NC(C)(C)N(O)C1(C)C`, for which the GI50 in the experiment on 786-0, with A498, in the experiment on CCRF-CEM, with DU-145, with EKVX and in the experiment on HCT-116 was > 100 µM (inactive) in each case. Also, the GI50 in the experiment on HCT-15 is greater than 100 µM; with HOP-92 it was > 100 µM (inactive); in the experiment with HT-29, > 100 µM (inactive); in the experiment with MDA-MB-231, > 100 µM (inactive); in the experiment on MDA-MB-435 it was > 100 µM (inactive); in the experiment on NCI-H522 it was > 100 µM (inactive). Also, the GI50 with NCI/ADR-RES, in the experiment with OVCAR-3, with RPMI-8226, in the experiment with SK-MEL-28, in the experiment on SNB-19 and with SNB-75 was > 100 µM (inactive) each time. Further, the GI50 with SR and in the experiment with SW-620 was > 100 µM (inactive) throughout.
